Experimental data from US8192962B2, “Processes for detecting toxic substances” (Daikin Industries, Ltd., priority 2001, dated 2012).

Test system: Genes belonging to other category
Test: DNA chip mRNA expression in yeast, genes belonging to other category (Table 9)
Assay type: cell-based, Saccharomyces cerevisiae S288C
Summary of the method: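 Ratios compare mRNA levels in stressed and control S. cerevisiae. Each toxicant was applied for two hours to log-phase cultures at 25° C. at a sub-lethal, growth-inhibiting level; fluorescent cDNA (Cy3- or Cy5-dUTP) was hybridized to a genome-wide yeast chip for over 12 h at 65° C.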

Measured: The level of expressed mRNA in the presence of chemical substance/The level of expressed mRNA in the absence of chemical substance

COc1cc(CNC(=O)CCCCC=CC(C)C)ccc1O [(12), 8-methyl-N-vanillyl-6-nonenamide]
1.4: yeast gene YLR327C | yeast gene YOR288C
1.6: yeast gene YLR120C
0.9: yeast gene YKL039W | yeast gene YKL093W | yeast gene YKL193C | yeast gene YLR340W | yeast gene YMR053C | yeast gene YMR092C | yeast gene YMR094W | yeast gene YOR124C | yeast gene YOR261C | yeast gene YOR355W | yeast gene YPL109C | yeast gene YPL149W
2.5: yeast gene YOR117W
1.3: yeast gene YLR136C | yeast gene YOR157C
0.7: yeast gene YKL013C | yeast gene YKL097W-A | yeast gene YMR275C | yeast gene YNL006W | yeast gene YNL007C | yeast gene YNR037C | yeast gene YOR132W | yeast gene YPL089C
1.0: yeast gene YJL164C | yeast gene YJL210W | yeast gene YJR049C | yeast gene YKL117W | yeast gene YLR078C | yeast gene YLR093C | yeast gene YLR118C | yeast gene YLR250W | yeast gene YLR391W | yeast gene YMR004W | yeast gene YMR104C | yeast gene YMR238W | yeast gene YMR314W | yeast gene YNL333W | yeast gene YPL230W | yeast gene YPR108W
0.3: yeast gene YKL096W
2.4: yeast gene YKL165C
1.1: yeast gene YJL116C | yeast gene YKR014C | yeast gene YLR429W | yeast gene YMR226C | yeast gene YNL093W | yeast gene YOL013C | yeast gene YOL164W | yeast gene YOR383C
1.2: yeast gene YMR276W | yeast gene YNR069C | yeast gene YOR036W | yeast gene YPR103W
2.8: yeast gene YNL015W
2.2: yeast gene YLR178C
0.8: yeast gene YJR004C | yeast gene YJR086W | yeast gene YJR091C | yeast gene YKL041W | yeast gene YKL139W | yeast gene YKR102W | yeast gene YLR080W | yeast gene YLR251W | yeast gene YLR362W | yeast gene YMR091C | yeast gene YNL147W | yeast gene YNL335W | yeast gene YNR010W | yeast gene YOR181W | yeast gene YOR229W | yeast gene YOR259C | yeast gene YOR265W | yeast gene YPR066W | yeast gene YPR140W | yeast gene YPR185W
1.5: yeast gene YKL008C | yeast gene YLR356W | yeast gene YMR219W | yeast gene YOR185C | yeast gene YOR198C | yeast gene YPL154C
